Test results: patent publication US7960397B2, “6,9-disubstituted purine derivatives and their use as cosmetics and cosmetic compositions” (Institute of Experimental Botany, Academy of Sciences of …, priority 2007, dated 2011)
Where two headings read alike, the source gives them in different places.

Experiments:
[1] = tested on: cytokinin-dependent tobacco callus Nicotiana tabacum L. cv. Wisconsin 38; test: Cytokinin activity in tobacco callus bioassay; assay type: cell-based; conditions: for concentration with highest activity: growth of tobacco callus, four weeks of cultivation, tested 10^−8 M to 10^−4 M; for Activity (%) [10^−5 mol · l^−1 BAP = 100%]: increase of fresh callus weight at the concentration with highest activity, 10^−5 M BAP = 100%
[2] = tested on: Amaranthus caudatus cotyledon/hypocotyl explants; test: Amaranthus bioassay (betacyanin content); parameters: species or system Amaranthus caudatus var. atropurpurea; conditions: for concentration with highest activity: betacyanin content after 48 h incubation, tested 10^−8 M to 10^−4 M; for Activity (%) [10^−5 mol · l^−1 BAP = 100%]: betacyanin content at the concentration with highest activity, 10^−5 M BAP = 100%
In short: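 Amaranthus caudatus explants (cotyledons plus hypocotyl) from 72 h dark-grown seedlings were incubated in darkness on medium with 10 mmol Na2HPO4–KH2PO4 pH 6.8, 5 mmol tyrosine and test compound; stock was 10^−3 M in DMSO/water. Betacyanin was measured as A537−A620 and activity expressed relative to 10^−5 M BAP (100%).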

excised wheat leaf tips = test: Antisenescence test, retention of chlorophyll in excised wheat leaf tips; parameters: species or system Triticum aestivum cv. Hereward; conditions: for activity (%) [10^−4 mol · l^−1 BAP = 100%]: retention of chlorophyll in excised wheat leaf tips at the concentration with highest activity, 10 replicate determinations; for concentration with highest activity: retention of chlorophyll in excised wheat leaf tips, tested range 10^−8 M to 10^−4 M, 96 h in the dark at 25° C.
In short: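 Winter wheat seedlings (Triticum aestivum cv. Hereward) were raised on vermiculite with Knop's solution at 25° C. for 7 days. Tips of the first leaf, 35 mm long (five tips, 100 mg combined), stood in […] of test solution in microtiter wells. After 96 h in the dark at 25° C., chlorophyll was extracted in 80% ethanol at 80° C. and read at 665 nm. Activity is relative to 10^−4 M BAP (100%).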

[3] = tested on: human diploid fibroblasts (HCA cells, HCA20, HCA40, HCA60); test: Senescent cells (β-galactosidase staining) in culture of human fibroblasts; assay type: cell-based; conditions: for SENESCENT CELLS (%) HCA20: human fibroblasts passage 20 (HCA20); for SENESCENT CELLS (%) HCA40: human fibroblasts passage 40 (HCA40); for SENESCENT CELLS (%) HCA60: human fibroblasts passage 60 (HCA60)
Experimental: In this example, human diploid fibroblasts (HCA cells of various passage levels: passage 20—designated HCA20; passage 40—designated HCA40; passage 60—designated HCA60) were stained for β-galactosidase activity. The medium used for the cell cultivation was removed, the cells were washed twice in […], and fixed in 2-3 ml of fixing solution comprised of a 2% formaldehyde and 0.2% glutaraldehyde in PBS. The cells were incubated at room temperature for 5 minutes, and then washed twice with PBS. The cells were subsequently incubated at 37° C.

[4] = tested on: promyelocytic HL-60 leukemia; test: In vitro cytotoxicity, Calcein AM assay; conditions: read-out: GI50 HL60
Experimental: (§1) Because only metabolically active cells cleave Calcein AM, these assays detect viable cells exclusively. The quantity of reduced Calcein AM corresponds to the number of vital cells in the culture.
(§2) The cells were maintained in Nunc/Corning 80 cm^2 plastic tissue culture flasks and cultured in cell culture medium (DMEM with 5 g/l glucose, 2 mM glutamine, 100 U/ml penicillin, 100 mg/ml streptomycin, 10% fetal calf serum and sodium bicarbonate).
(§3) The cell suspensions that were prepared and diluted according to the particular cell type and the expected target cell density (2,500-30,000 cells per well based on cell growth characteristics) were added by pipette (80 ml) into 96-well microtiter plates. Inoculates were allowed a pre-incubation period of 24 hours at 37° C. and 5% CO2 for stabilization. Four-fold dilutions of the intended test concentration were added at time zero in 20 ml aliquots to the microtiter plate wells. Usually, the compound tested was evaluated at six 4-fold dilutions. […] All drug concentrations were examined in duplicate. Incubations of cells with the tested compounds lasted for 72 hours at 37° C., in a 5% CO2 atmosphere and 100% humidity. At the end of the incubation period, the cells were assayed by using Calcein AM. Ten microliters of the stock solution were pipetted into each well and incubated for 1 hour. Fluorescence (FD) was measured with the Labsystem FIA Reader Fluoroscan Ascent (UK).

[5] = tested on: breast carcinoma cell line MCF-7; test: In vitro cytotoxicity, Calcein AM assay; conditions: read-out: GI50 MCF7
Experimental: as §1, §2, §3

mouse fibroblasts NIH3T3 = test: In vitro cytotoxicity, Calcein AM assay; conditions: read-out: GI50 NIH-3T3
Experimental: as §1, §2, §3

human osteosarcoma HOS = test: In vitro cytotoxicity, Calcein AM assay; conditions: read-out: GI50 HOS
Experimental: as §1, §2, §3

[6] = tested on: human myeloid leukemia K-562; test: In vitro cytotoxicity, Calcein AM assay; conditions: read-out: GI50 K-562; K-562, 72 hours, Calcein AM
Experimental: as §1, §2, §3

[7] = tested on: Human T-lymphoblastic leukemia cell line CEM; test: In vitro cytotoxicity, Calcein AM assay; conditions: read-out: GI50 CEM
Experimental: as §1, §2, §3

Row | Compound | concentration with highest activity [1] | Activity (%) [10^−5 mol · l^−1 BAP = 100%] [1] [%] | concentration with highest activity [2] | Activity (%) [10^−5 mol · l^−1 BAP = 100%] [2] [%] | activity (%) [10^−4 mol · l^−1 BAP = 100%] (excised wheat leaf tips) [%] | concentration with highest activity (excised wheat leaf tips) | SENESCENT CELLS (%) HCA20 [3] [%] | SENESCENT CELLS (%) HCA40 [3] [%] | SENESCENT CELLS (%) HCA60 [3] [%] | GI50 ([4]; HL60, 72 hours, Calcein AM) [µM] | GI50 ([5]; MCF7, 72 hours, Calcein AM) [µM] | GI50 (mouse fibroblasts NIH3T3; NIH-3T3, 72 hours, Calcein AM) [µM] | GI50 (human osteosarcoma HOS; HOS, 72 hours, Calcein AM) [µM] | GI50 [6] [µM] | GI50 ([7]; CEM, 72 hours, Calcein AM) [µM] | GI50 ([4]; Homo sapiens, HL-60, 72 h) [µM] | GI50 ([5]; Homo sapiens, MCF7, 72 h) [µM] | GI50 (mouse fibroblasts NIH3T3; Mus musculus, NIH3T3, 72 h) [µM] | GI50 (human osteosarcoma HOS; Homo sapiens, 72 h) [µM] | GI50 ([7]; Homo sapiens, 72 h) [µM]
1 | COc1ccc(CNc2ncnc3c2ncn3C2CCCCO2)cc1O (stereo not drawn) | 10^−6 mol · l^−1 | 55 | 10^−4 mol · l^−1 | 41 | 47 | 10^−4 mol · l^−1 | 5 | 7 | 29 | > 167 | > 167 | > 167 | > 167 | – | – | – | – | – | – | –
2 | Oc1coc(CNc2ncnc3c2ncn3C2CCCCO2)c1 (stereo not drawn) | 10^−6 mol · l^−1 | 91 | 10^−4 mol · l^−1 | 115 | 101 | 10^−4 mol · l^−1 | 4 | 4 | 16 | – | > 167 | – | > 167 | > 167 | – | – | – | – | – | –
3 | Cc1cc(Nc2ncnc3c2ncn3C2CCCCO2)ccc1O (stereo not drawn) [4-hydroxy-3-methylanilino / tetrahydropyran-2-yl] | 10^−5 mol · l^−1 | 12 | 10^−4 mol · l^−1 | 15 | 7 | 10^−4 mol · l^−1 | 3 | 4 | 19 | > 167 | > 167 | > 167 | > 167 | – | – | – | – | – | – | –
4 | Cc1cc(CNc2ncnc3c2ncn3C2CCCCO2)ccc1O (stereo not drawn) [4-hydroxy-3-methylbenzylamino / tetrahydropyran-2-yl] | 10^−5 mol · l^−1 | 4 | 10^−4 mol · l^−1 | 7 | 9 | 10^−4 mol · l^−1 | 4 | 6 | 22 | > 167 | > 167 | > 167 | > 167 | – | > 167 | – | – | – | – | –
5 | Cc1cc(Nc2ncnc3c2ncn3C2CCCCO2)ccc1O (stereo not drawn) [4-hydroxy-5-methylanilino / tetrahydropyran-2-yl] | 10^−5 mol · l^−1 | 10 | 10^−4 mol · l^−1 | 17 | 10 | 10^−4 mol · l^−1 | 4 | 4 | 18 | > 167 | > 167 | > 167 | > 167 | – | – | – | – | – | – | –
6 | Cc1cc(CNc2ncnc3c2ncn3C2CCCCO2)ccc1O (stereo not drawn) [4-hydroxy-5-methylbenzylamino / tetrahydropyran-2-yl] | 10^−5 mol · l^−1 | 6 | 10^−4 mol · l^−1 | 5 | 3 | 10^−4 mol · l^−1 | 3 | 4 | 20 | > 1670 | > 167 | > 1670 | > 167 | – | > 167 | – | – | – | – | –
7 | Oc1ccc(CNc2ncnc3c2ncn3C2CCCO2)cc1 (stereo not drawn) [6-(4-hydroxybenzylamino)-9-(tetrahydrofuran-2-yl)-purine] | 10^−5 mol · l^−1 | 27 | 10^−4 mol · l^−1 | 13 | 3 | 10^−4 mol · l^−1 | 5 | 5 | 16 | – | – | – | – | – | – | > 167 | > 167 | > 167 | > 167 | –
8 | C/C(=C\CNc1ncnc2nc[nH]c12)CO [6-((E)-4-hydroxy-3-methylbut-2-enylamino)purine, reference compound] | – | 86.9 | – | 116 | 28.3 | – | – | – | – | – | – | – | – | – | – | > 167 | > 167 | > 167 | > 167 | > 167
9 | C/C(=C\CNc1ncnc2c1ncn2C1CCCCO1)CO (stereo not drawn) [6-(E)-(4-hydroxy-3-methylbut-2-en-1-ylamino)-9-(tetrahydropyran-2-yl)purine] | 10^−5 mol · l^−1 | 96.5 | 10^−4 mol · l^−1 | 299.4 | 38.2 | 10^−4 mol · l^−1 | – | – | – | – | – | – | – | – | – | > 167 | > 167 | > 167 | > 167 | > 167
10 | c1coc(CNc2ncnc3[nH]cnc23)c1 [furfurylamino / H, reference compound] | – | – | – | – | – | – | – | – | – | 149 | > 167 | > 167 | > 167 | 164 | 155 | – | – | – | – | –
11 | CC(C)=CCNc1ncnc2nc[nH]c12 [isopentenylamino / H] | – | – | – | – | – | – | – | – | – | > 167 | > 167 | > 167 | > 167 | 147 | 92.2 | – | – | – | – | –
